Source: PubChem BioAssay (NCI)
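Exposure lasted 48 hours, with cells grown in 96-well plates and compounds tested at five concentrations. GI50 marks 50% less growth. TGI: concentration producing complete growth inhibition.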

Columns and labels:
Assay in all cases: inhibition of tumour cell growth, NCI panel, 48 h; in the data active = GI50 below about 0.43 µM; inactive = the rest
HCC-2998 colon = tested on: HCC-2998 colon
HOP-62 NSCLC = tested on: HOP-62 NSCLC
HT29 colon = tested on: HT29 colon
MCF7 breast = tested on: MCF7 breast
MDA-MB-435 = tested on: MDA-MB-435
NCI-H226 lung = tested on: NCI-H226 lung
NCI-H460 lung = tested on: NCI-H460 lung
RXF 393 renal = tested on: RXF 393 renal

N=C1c2nc3n(c2C(=O)c2nc4n(c21)CCCC4)CCCC3
0.504 µM: TGI (MDA-MB-435)
5.51 µM: TGI (HT29 colon)
inactive: GI50 (HCC-2998 colon) 3.74 µM | GI50 (HOP-62 NSCLC) 0.921 µM | GI50 (HT29 colon) 2.56 µM | GI50 (MCF7 breast) 1.36 µM | GI50 (NCI-H226 lung) 1.08 µM | GI50 (NCI-H460 lung) 1.59 µM | GI50 (RXF 393 renal) 15.8 µM
3.38 µM: TGI (NCI-H226 lung)
3.54 µM: TGI (HOP-62 NSCLC) | TGI (NCI-H460 lung)
51 µM: TGI (RXF 393 renal)
active: GI50 (MDA-MB-435) 0.235 µM
3.61 µM: TGI (MCF7 breast)
12.8 µM: TGI (HCC-2998 colon)

CN(C)CCCN=C(N)N
> 100 µM: TGI (HOP-62 NSCLC) | TGI (HT29 colon) | TGI (MCF7 breast) | TGI (MDA-MB-435) | TGI (NCI-H226 lung) | TGI (NCI-H460 lung) | TGI (RXF 393 renal)

COC(=O)COc1ccc(/C=C2\N=C(c3ccccc3)N(c3cc(C(F)(F)F)ccc3Cl)C2=O)cc1
inactive: GI50 (HCC-2998 colon) 64 µM | GI50 (HOP-62 NSCLC) 64.9 µM | GI50 (HT29 colon) 97.1 µM | GI50 (MCF7 breast) 59.8 µM | GI50 (MDA-MB-435) 50.3 µM | GI50 (NCI-H226 lung) 52.2 µM | GI50 (NCI-H460 lung) > 100 µM | GI50 (RXF 393 renal) > 100 µM
> 100 µM: TGI (HCC-2998 colon) | TGI (HOP-62 NSCLC) | TGI (HT29 colon) | TGI (MCF7 breast) | TGI (MDA-MB-435) | TGI (NCI-H226 lung) | TGI (NCI-H460 lung) | TGI (RXF 393 renal)

Nc1nc(Nc2ccc3c(c2)CC[C@@H](N2CCCC2)CC3)nn1-c1cc2c(nn1)-c1ccccc1CCC2
2.82 µM: TGI (NCI-H460 lung)
4.01 µM: TGI (HT29 colon)
inactive: GI50 (HCC-2998 colon) 1.61 µM | GI50 (HT29 colon) 1.08 µM | GI50 (MDA-MB-435) 1.69 µM | GI50 (NCI-H460 lung) 1.31 µM
3.1 µM: TGI (HCC-2998 colon) | TGI (MDA-MB-435)

Fc1ccc(Oc2nccc(-c3c(-c4ccc(F)cc4)ncn3C3CCNCC3)n2)cc1
> 25 µM: TGI (HCC-2998 colon) | TGI (HOP-62 NSCLC) | TGI (HT29 colon) | TGI (MCF7 breast) | TGI (MDA-MB-435) | TGI (NCI-H460 lung) | TGI (RXF 393 renal)
inactive: GI50 (HCC-2998 colon) > 25 µM | GI50 (HOP-62 NSCLC) > 25 µM | GI50 (HT29 colon) 14.7 µM | GI50 (MCF7 breast) > 25 µM | GI50 (MDA-MB-435) > 25 µM | GI50 (NCI-H460 lung) > 25 µM | GI50 (RXF 393 renal) > 25 µM

Cc1ncc([N+](=O)[O-])n1CCNS(=O)(=O)CCCn1ccnc1[N+](=O)[O-]
> 100 µM: TGI (HOP-62 NSCLC) | TGI (HT29 colon) | TGI (MCF7 breast) | TGI (MDA-MB-435) | TGI (NCI-H226 lung) | TGI (NCI-H460 lung) | TGI (RXF 393 renal)

CC(C)(C)C(=O)Nc1ccccc1I(=O)=O
inactive: GI50 (HCC-2998 colon) > 100 µM | GI50 (HT29 colon) > 100 µM | GI50 (MCF7 breast) > 100 µM | GI50 (MDA-MB-435) > 100 µM | GI50 (NCI-H226 lung) > 100 µM | GI50 (NCI-H460 lung) > 100 µM | GI50 (RXF 393 renal) > 100 µM
> 100 µM: TGI (HCC-2998 colon) | TGI (HT29 colon) | TGI (MCF7 breast) | TGI (MDA-MB-435) | TGI (NCI-H226 lung) | TGI (NCI-H460 lung) | TGI (RXF 393 renal)

COc1ccc2c(c1)nc(N)c1c3cc(OC)c(OC)cc3cn21
16.5 µM: TGI (HCC-2998 colon)
11 µM: TGI (NCI-H460 lung)
11.2 µM: TGI (HT29 colon)
active: GI50 (HCC-2998 colon) 0.0434 µM | GI50 (MCF7 breast) 0.148 µM | GI50 (MDA-MB-435) < 0.01 µM | GI50 (NCI-H460 lung) 0.0606 µM
16.8 µM: TGI (NCI-H226 lung)
13.7 µM: TGI (MCF7 breast)
16.9 µM: TGI (HOP-62 NSCLC)

NCCCC(=O)Nc1ccncc1
> 100 µM: TGI (HCC-2998 colon) | TGI (HOP-62 NSCLC) | TGI (HT29 colon) | TGI (MCF7 breast) | TGI (MDA-MB-435) | TGI (NCI-H226 lung) | TGI (NCI-H460 lung)
inactive: GI50 (HCC-2998 colon) > 100 µM | GI50 (HOP-62 NSCLC) > 100 µM | GI50 (HT29 colon) > 100 µM | GI50 (MCF7 breast) > 100 µM | GI50 (MDA-MB-435) > 100 µM | GI50 (NCI-H226 lung) > 100 µM | GI50 (NCI-H460 lung) > 100 µM

FC(F)(F)c1cccc(COCCN2CCN(Cc3cccc(C(F)(F)F)c3)CC2)c1
35.8 µM: TGI (NCI-H226 lung)
44.6 µM: TGI (HT29 colon)
34.7 µM: TGI (NCI-H460 lung)
32.7 µM: TGI (HCC-2998 colon)
42.1 µM: TGI (HOP-62 NSCLC)
31.7 µM: TGI (MCF7 breast)
